Measurements taken from the supplement of paper PMC10307832.

Columns and labels:
Assay in all cases: relative viability (nuclei count vs DMSO), 5 days (fraction); higher = more cells survive
Obatoclax + Trametinib = compound: COC1=CC(c2cc3ccccc3[nH]2)=N/C1=C\c1[nH]c(C)cc1C [Obatoclax] + CC(=O)Nc1cccc(-n2c(=O)n(C3CC3)c(=O)c3c(Nc4ccc(I)cc4F)n(C)c(=O)c(C)c32)c1 [Trametinib] (partner 0.02 µM)
How it was run: (§1)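 Values are medians from duplicate plates. Each reflects relative viability, defined as the nuclei count of treated wells over that of vehicle wells. Lung cancer cell lines in 1536-well plates were pin-tool dosed one day after seeding with one drug alone or with a fixed anchor-drug dose plus five library-drug doses (not always all listed) in √10 steps, then fixed, stained and imaged at 4× after 5 days.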

[1] = compound: CC1=CC(=NN1)NC2=CC(=NC(=N2)/C=C/C3=CC=CC=C3)N4CCN(CC4)C + O=C(CCCCCCC(=O)Nc1ccccc1)NO [Vorinostat] (partner 1 µM)
How it was run: as §1

Obatoclax + Olaparib = compound: COC1=CC(c2cc3ccccc3[nH]2)=N/C1=C\c1[nH]c(C)cc1C [Obatoclax] + O=C(c1cc(Cc2n[nH]c(=O)c3ccccc23)ccc1F)N1CCN(C(=O)C2CC2)CC1 [Olaparib] (partner 8 µM)
How it was run: as §1

Obatoclax + Dasatinib = compound: COC1=CC(c2cc3ccccc3[nH]2)=N/C1=C\c1[nH]c(C)cc1C [Obatoclax] + Cc1nc(Nc2ncc(C(=O)Nc3c(C)cccc3Cl)s2)cc(N2CCN(CCO)CC2)n1 [Dasatinib] (partner 0.075 µM)
How it was run: as §1

Cell Line	relative viability (Obatoclax + Trametinib; first compound 0.01 µM)	relative viability (Obatoclax + Trametinib; first compound 0.03162 µM)	relative viability (Obatoclax + Trametinib; first compound 0.1 µM)	relative viability (Obatoclax + Trametinib; first compound 0.3162 µM)	relative viability (Obatoclax + Trametinib; first compound 1 µM)	relative viability ([1]; first compound 0.08 µM)	relative viability ([1]; first compound 0.253 µM)	relative viability ([1]; first compound 0.8 µM)	relative viability ([1]; first compound 2.53 µM)	relative viability ([1]; first compound 8 µM)	relative viability (Obatoclax + Olaparib; first compound 0.01 µM)	relative viability (Obatoclax + Olaparib; first compound 0.03162 µM)	relative viability (Obatoclax + Olaparib; first compound 0.1 µM)	relative viability (Obatoclax + Olaparib; first compound 0.3162 µM)	relative viability (Obatoclax + Olaparib; first compound 1 µM)	relative viability (Obatoclax + Dasatinib; first compound 0.01 µM)	relative viability (Obatoclax + Dasatinib; first compound 0.03162 µM)	relative viability (Obatoclax + Dasatinib; first compound 0.1 µM)	relative viability (Obatoclax + Dasatinib; first compound 0.3162 µM)	relative viability (Obatoclax + Dasatinib; first compound 1 µM)
NCI-H1650	0.763	0.724	0.652	0.36	0.303	0.523	0.733	0.553	0.14	0.0794	0.764	0.742	0.774	0.539	0.229	0.304	0.329	0.396	0.271	0.179
NCI-H2009	0.32	0.313	0.252	0.304	0.192	0.751	0.699	0.712	0.218	0.121	0.687	0.712	0.705	0.573	0.26	0.297	0.367	0.252	0.208	0.197
COR-L23	0.541	0.607	0.44	0.252	0.194	0.417	0.446	0.195	0.0754	0.087	0.37	0.352	0.354	0.248	0.156	0.494	0.488	0.416	0.285	0.163
NCI-H460	0.151	0.132	0.232	0.0458	0.0584	0.673	0.755	0.382	0.0404	0.0188	0.422	0.408	–	0.339	0.14	0.497	0.385	0.384	0.343	0.21
NCI-H522	0.683	0.765	0.805	0.783	0.867	0.894	0.93	1.12	0.854	0.426	0.783	0.681	0.694	0.621	0.56	1.03	0.757	0.696	0.851	0.573
LCLC-103H	0.64	0.702	0.63	0.678	0.694	0.824	0.69	0.779	0.582	0.294	0.704	0.745	0.672	0.745	0.706	0.458	0.464	0.411	0.517	0.53
HCC-827	0.523	0.512	0.734	0.475	0.595	0.282	0.908	0.823	0.773	0.215	0.594	0.542	0.628	0.581	0.221	0.451	0.292	0.417	0.407	0.388
NCI-H322M	0.547	0.482	0.71	0.535	0.669	0.881	0.948	0.891	0.31	0.303	0.823	0.739	0.961	0.758	0.724	0.257	0.259	–	0.259	0.28
